Results as given in PMC5074076, “Novel minimal physiologically-based model for the prediction of passive tubular reabsorption and renal excretion clearance” (European Journal of Pharmaceutical Sciences, 2016).

Columns and labels:
[1] = Observed clearance ratio and fraction reabsorbed (Freab, Freab′) calculated from CLR, fu,p and GFR; conditions: for Apparent Freab / Apparent Freab’: calculated from observed CLR, fu,p and GFR; for Freab: observed/apparent, 1 - CLR/(GFR x fu,p), GFR 120 mL/min
Protocol: The clearance ratio was calculated from clinical data using Eqs. […] For the remaining drugs the fraction reabsorbed (Freab) was calculated using Eq.
GFR values for healthy subjects may vary as a result of biological as well as inter-individual variation and also the method of measurement. […] Individual GFR values for subjects in clinical trials databases were generally not available.
In the proposed model, the nephron is represented as five compartments, namely the glomerulus and four tubular regions, as depicted in Fig. 1. The tubular compartments in the model, listed in anatomical order starting from the glomerulus are: the proximal tubule (PT), the loop of Henle (LoH), the distal tubule (DT) and the collecting duct (CD). […] The relationship between Freab′ and Freab is shown in Eq. (11). The predicted overall Freab′ was calculated from the predicted Freab′ in each (i) tubular region (Freab,i′), as shown in Eq. (12).

[2] = pKa, potentiometric AstraZeneca in-house assay (or ACD / BioByte)
Text: (§1) The pKa values associated with ionisable centres identified within a given drug were used to calculate the fraction of drug ionised at pH 6.5. Drugs were then classified into groups as follows: drugs with > 50% unionised at pH 6.5 were classified as “Neutral”; drugs with > 50% ionised as mono −/di −/tri-protic acids or bases were classified as “Acid” or “Base”, respectively; “Zwitterions” were classified as drugs with > 50% ionised, with the major ionised species having no net charge; all other drugs were classified as amphoteric. […] LogD6.5 for neutral, amphoteric and zwitterion drugs were assumed to be equal to LogD7.4.

[3] = Ionisation classification at pH 6.5 from pKa; format: physicochemical; conditions: predominant species (> 50%) at pH 6.5 from measured or calculated pKa
Text: as §1

[4] = Caco-2 apparent permeability (Papp), apical to basolateral, pH 6.5-7.4 gradient, efflux inhibitor cocktail; conditions: human, Caco-2, pH 6.5
Protocol: The assay was performed using the apical to basolateral pH gradient format of pH 6.5 to pH 7.4. […] The efflux transporter inhibitor cocktail was used to minimise the effect of efflux transporters expressed in Caco-2 cells (e.g. P-glycoprotein, BCRP and MRP2) on the estimate of apical to basolateral Papp of substrates for such transporters.

[5] = cited from earlier work; for CLR: healthy adult subjects, overall weighted mean of literature values, absolute (not normalised), ref Supplementary Results Table S2.1; for Overall weighted mean CLR: healthy subjects, plasma and urine data from same subjects, normalised for subject weight and body surface area where necessary; for Overall weighted mean CLR / CLR Observed: ref Table S2.1; for CLR Observed: overall weighted mean of values obtained from a literature survey
[6] = LogD7.4 octanol-buffer, shake-flask (or ACD / BioByte); conditions: pH 7.4
Text: as §1

[7] = LogD6.5 estimated from LogD7.4 and pKa; conditions: octanol/buffer, pH 6.5
Text: as §1

[8] = pKa (acid), measured, potentiometric
[9] = pKa (base), measured, potentiometric

| Compound | Apparent Freab [1] | Apparent Freab’ [1] | Freab [1] | pKa [2, 8] | pKa [2, 9] | Ionisation at pH 6.5 [3] | Papp A→B at 2 h [4] [×10⁻⁶ cm/s] | CLR [5] [mL/min] | Overall weighted mean CLR [5] [mL/min] | CLR Observed [5] [mL/min] | pKa [2] | logD ([6]; octanol/buffer) | logD [7] | logD [6] |
| --- | --- | --- | --- | --- | --- | --- | --- | --- | --- | --- | --- | --- | --- | --- |
| CN1CCN(c2cc3c(cc2F)c(=O)c(C(=O)O)cn3-c2ccc(F)cc2)CC1 [Difloxacin] | 0.939 | 0.947 | 0.94 | 5.81 | 7.39 | Zwitterion | 74.6 | 4.54 | 4.5 | 4.54 |  |  |  |  |
| CN(C)CCCN1c2ccccc2CCc2ccccc21 [Imipramine] |  |  |  |  | 9.17 |  |  |  |  |  |  |  |  |  |
| N=C(N)c1ccc(CNC(=O)[C@@H]2CCN2C(=O)[C@H](NCC(=O)O)C2CCCCC2)cc1 [Melagatran] | -0.021 | -0.021 |  | 2.12 |  | Amphoteric | 0.145 | 114 | 113.7 | 113.74 |  |  |  |  |
| COCCc1ccc(OCC(O)CNC(C)C)cc1 (stereo not shown) [Metoprolol] | -0.050 | -0.050 |  |  |  | Base | 17 | 110 | 109.6 | 109.58 | 9.4 |  |  |  |
| C[C@]12C=CC(=O)C=C1CC[C@@H]1[C@@H]2C(=O)C[C@@]2(C)[C@H]1CC[C@]2(O)C(=O)CO [Prednisone] | 0.299 | 0.301 | 0.30 |  |  | Neutral | 37.3 | 37.9 | 37.9 | 37.87 |  | 1.25 | 1.25 |  |
| CCCN1CCCC[C@H]1C(=O)Nc1c(C)cccc1C [Ropivacaine] | 0.547 | 0.552 | 0.55 |  |  | Base | 32.3 | 2.73 | 2.7 | 2.73 |  |  | 1.27 | 2.1 |
| CC1(C)O[C@@H]2[C@@H](CO[C@@]3(COS(N)(=O)=O)OC(C)(C)O[C@@H]23)O1 [Topiramate] | 0.856 | 0.863 | 0.86 |  |  | Neutral | 46.2 | 15.1 | 15.1 | 15.05 |  | 0.6 | 0.61 |  |
| COc1ccc(C(CN(C)C)C2(O)CCCCC2)cc1 (stereo not shown) [Venlafaxine] | 0.088 | 0.089 | 0.09 |  |  | Base | 27.6 | 80.0 | 80.0 | 80.00 |  |  | 0.05 | 0.95 |
